The values below come from US10112929B2, “Lactams as inhibitors of rock” (BRISTOL-MYERS SQUIBB COMPANY, priority 2015, dated 2018).

Usually IC50 stands for the midpoint of a concentration-inhibition curve.

Where a name gives a salt, the structure may show the parent alone.

For the test, the target named is ROCK2 (Homo sapiens (Human), UniProt O75116). The test is described as follows: biochemical.
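Further: rho kinase enzyme reaction halted with EDTA, phospho- and non-phospho peptide separated for read-out, kinase activity inhibition derived across a dose-response series, DMSO under 2%.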

Chain of ROCK2 (O75116 whole entry, species assumed): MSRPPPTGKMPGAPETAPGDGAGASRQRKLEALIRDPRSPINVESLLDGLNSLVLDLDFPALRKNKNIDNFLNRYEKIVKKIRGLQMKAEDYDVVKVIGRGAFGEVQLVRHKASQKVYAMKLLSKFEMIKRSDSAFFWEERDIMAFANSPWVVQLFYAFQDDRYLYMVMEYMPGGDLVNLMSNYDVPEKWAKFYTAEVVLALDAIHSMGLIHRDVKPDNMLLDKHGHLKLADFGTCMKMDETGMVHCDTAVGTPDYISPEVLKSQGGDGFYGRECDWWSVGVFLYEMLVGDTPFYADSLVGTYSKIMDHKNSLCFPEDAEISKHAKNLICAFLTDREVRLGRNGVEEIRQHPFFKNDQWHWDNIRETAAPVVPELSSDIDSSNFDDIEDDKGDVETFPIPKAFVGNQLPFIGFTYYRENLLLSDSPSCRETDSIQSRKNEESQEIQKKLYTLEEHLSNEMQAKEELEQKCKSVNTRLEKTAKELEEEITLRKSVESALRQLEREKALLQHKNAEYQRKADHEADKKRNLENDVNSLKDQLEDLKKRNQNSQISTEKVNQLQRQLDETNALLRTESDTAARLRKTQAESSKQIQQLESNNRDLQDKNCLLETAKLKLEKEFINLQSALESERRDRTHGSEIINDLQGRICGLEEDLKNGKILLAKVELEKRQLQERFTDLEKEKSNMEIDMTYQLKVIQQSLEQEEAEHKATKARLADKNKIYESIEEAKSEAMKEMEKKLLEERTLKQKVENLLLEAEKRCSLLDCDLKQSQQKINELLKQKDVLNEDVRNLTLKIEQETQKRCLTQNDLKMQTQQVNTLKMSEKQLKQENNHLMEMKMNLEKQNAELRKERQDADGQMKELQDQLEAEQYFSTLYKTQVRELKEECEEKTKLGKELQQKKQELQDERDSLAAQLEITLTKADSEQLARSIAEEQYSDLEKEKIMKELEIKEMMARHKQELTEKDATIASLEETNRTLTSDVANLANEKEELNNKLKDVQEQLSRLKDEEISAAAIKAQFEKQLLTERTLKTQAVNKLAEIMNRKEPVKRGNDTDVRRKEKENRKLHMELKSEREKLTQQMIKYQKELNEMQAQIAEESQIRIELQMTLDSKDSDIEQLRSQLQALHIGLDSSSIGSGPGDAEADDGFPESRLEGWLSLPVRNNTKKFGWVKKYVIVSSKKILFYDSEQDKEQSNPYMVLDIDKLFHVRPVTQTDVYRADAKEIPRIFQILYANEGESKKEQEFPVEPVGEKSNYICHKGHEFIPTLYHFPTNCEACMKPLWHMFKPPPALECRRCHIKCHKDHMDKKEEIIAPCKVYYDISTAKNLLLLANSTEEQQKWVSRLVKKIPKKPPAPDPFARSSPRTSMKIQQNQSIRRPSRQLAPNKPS

Take `COc1cc(F)cc(NC2CCN(c3cc(F)c(-c4cn[nH]c4)cc3F)C2=O)c1` (single isomer, unassigned) [Example 352, 1-(2,5-difluoro-4-(1H-pyrazol-4-yl)phenyl)-3-((3-fluoro-5-methoxyphenyl)amino)pyrrolidin-2-one]: the IC50 is under 0.01 µM. The figure for `O=C1C(c2ccccc2Cl)CCN1c1ccc(-c2cn[nH]c2)cc1` (stereo not shown) [Example 105, 1-(4-(1H-pyrazol-4-yl)phenyl)-3-(2-chlorophenyl)pyrrolidin-2-one] is 0.01 to 0.1 µM; for `COc1cccc(NC2CCN(c3ccc(-c4cn[nH]c4)c(C)n3)C2=O)c1` (single isomer, unassigned) [Example 188, 3-((3-methoxyphenyl)amino)-1-(6-methyl-5-(1H-pyrazol-4-yl)pyridin-2-yl)pyrrolidin-2-one] it is 0.01 to 0.1 µM.

With `COc1c(F)cccc1NC1CCN(c2ccc(-c3cn[nH]c3)c(F)c2)C1=O` (single isomer, unassigned) [Example 336, 3-((3-fluoro-2-methoxyphenyl)amino)-1-(3-fluoro-4-(1H-pyrazol-4-yl)phenyl) pyrrolidin-2-one], the concentration for half-maximal inhibition (IC50) was under 0.01 µM. The figure for `CCOc1cc(N2CCC(Nc3cc(OC)ccc3F)C2=O)ccc1-c1cn[nH]c1` (single isomer, unassigned) [Example 40, 1-(3-ethoxy-4-(1H-pyrazol-4-yl)phenyl)-3-((2-fluoro-5-methoxyphenyl)amino)pyrrolidin-2-one] is 0.1 to 2.2 µM; for `COc1cccc(NC2CCN(c3ccc(-c4cn[nH]c4)c(F)c3F)C2=O)c1` (single isomer, unassigned) [Example 306, 1-(2,3-difluoro-4-(1H-pyrazol-4-yl)phenyl)-3-((3-methoxyphenyl)amino) pyrrolidin-2-one] it is under 0.01 µM; for `COc1cc(NC2CCN(c3ccc(-c4cn[nH]c4)cc3F)C2=O)ccc1F` (single isomer, unassigned) [Example 330, 3-((4-fluoro-3-methoxyphenyl)amino)-1-(2-fluoro-4-(1H-pyrazol-4-yl)phenyl) pyrrolidin-2-one] it is 0.01 to 0.1 µM. In turn, `CNc1nc(N2CCC(Nc3cccc(OC)c3)C2=O)ccc1-c1cn[nH]c1` (single isomer, unassigned) [Example 253, 3-((3-methoxyphenyl)amino)-1-(6-(methylamino)-5-(1H-pyrazol-4-yl)pyridin-2-yl)pyrrolidin-2-one] yielded an IC50 of 0.01 to 0.1 µM. Compound `COc1nc(N2CCC(N3CCC(F)(F)C3)C2=O)ccc1-c1cn[nH]c1` (racemic) [Example 284, 3,3-difluoro-1′-(6-methoxy-5-(1H-pyrazol-4-yl)pyridin-2-yl)-[1,3′-bipyrrolidin]-2′-one hydrochloride] displayed an IC50 of 0.1 to 2.2 µM. The figure for `COc1cc(N2CCC(Nc3cccc(F)c3)C2=O)ccc1-c1cn[nH]c1` (stereo not shown) [Example 72, 3-((3-fluorophenyl)amino)-1-(3-methoxy-4-(1H-pyrazol-4-yl)phenyl)pyrrolidin-2-one] is under 0.01 µM; for `COc1cc(NC2CCN(c3ccc(-c4cn[nH]c4)c(OC)c3)C2=O)cc(OC)c1` (single isomer, unassigned) [Example 139, 3-((3,5-dimethoxyphenyl)amino)-1-(3-methoxy-4-(1H-pyrazol-4-yl)phenyl) pyrrolidin-2-one] it is 0.1 to 2.2 µM. For `O=C1C(Nc2cccnc2)CCN1c1ccc(-c2cn[nH]c2)cc1` (stereo not shown) [Example 9, 1-(4-(1H-pyrazol-4-yl)phenyl)-3-(pyridin-3-ylamino)pyrrolidin-2-one], the half-inhibitory concentration (IC50) lay in the range of 0.01 to 0.1 µM. The figure for `COc1cc(F)cc(NC2CCN(c3ccc(-c4cn[nH]c4)c(OC)n3)C2=O)c1` (single isomer, unassigned) [Example 198, 3-((3-fluoro-5-methoxyphenyl)amino)-1-(6-methoxy-5-(1H-pyrazol-4-yl)pyridin-2 yl)pyrrolidin-2-one] is under 0.01 µM; for `COc1cccc(NC2CCN(c3ccc(-c4cn[nH]c4)c(C#N)c3)C2=O)c1` (single isomer, unassigned) [Example 378, 5-(3-((3-methoxyphenyl)amino)-2-oxopyrrolidin-1-yl)-2-(1H-pyrazol-4-yl)benzonitrile] it is 0.01 to 0.1 µM. The figure for `COc1ccc(F)c(NC2CCN(c3ccc(-c4cn[nH]c4)c(C(F)(F)F)c3)C2=O)c1` (single isomer, unassigned) [Example 373, 1-(4-(1H-pyrazol-4-yl)-3-(trifluoromethyl)phenyl)-3-((2-fluoro-5-methoxyphenyl)amino)pyrrolidin-2-one] is 0.1 to 2.2 µM; for `Cc1cccc(OC2CCN(c3ccc(-c4cn[nH]c4)cc3)C2=O)c1` (stereo not shown) [Example 109, 1-(4-(1H-pyrazol-4-yl)phenyl)-3-(m-tolyloxy)pyrrolidin-2-one] it is 0.1 to 2.2 µM.

The compound `COc1nc(N2CCC(Nc3cccc(NS(C)(=O)=O)c3)C2=O)ccc1-c1cn[nH]c1` (racemic) [Example 265, N-(3-((1-(6-methoxy-5-(1H-pyrazol-4-yl)pyridin-2-yl)-2-oxopyrrolidin-3-yl)amino)phenyl)methanesulfonamide] displayed a 50% inhibitory concentration (IC50) of 0.01 to 0.1 µM. The figure for `COc1cc(F)cc(NC2CCN(c3ccc(-c4cn[nH]c4)c(OC)c3)C2=O)c1` (single isomer, unassigned) [Example 137, 3-((3-fluoro-5-methoxyphenyl)amino)-1-(3-methoxy-4-(1H-pyrazol-4-yl)phenyl) pyrrolidin-2-one] is under 0.01 µM. `COc1cc(F)cc(NC2CCN(c3ncc(-c4cn[nH]c4)cc3F)C2=O)c1` (single isomer, unassigned) [Example 359, 1-(3-fluoro-5-(1H-pyrazol-4-yl)pyridin-2-yl)-3-((3-fluoro-5-methoxyphenyl)amino) pyrrolidin-2-one] gave an IC50 of 0.1 to 2.2 µM. The same measure for `COc1cc(NC2CCN(c3ccc(-c4cn[nH]c4)cc3)C2=O)ccc1F` (single isomer, unassigned) [Example 18, 1-(4-(1H-pyrazol-4-yl)phenyl)-3-((4-fluoro-3-methoxyphenyl)amino)pyrrolidin-2-one]: under 0.01 µM. In turn, `COc1cc(N2CCC(Nc3cccc(OC(F)(F)F)c3)C2=O)ccc1-c1cn[nH]c1` (stereo not shown) [Example 70, 1-(3-methoxy-4-(1H-pyrazol-4-yl)phenyl)-3-((3-(trifluoromethoxy)phenyl)amino)pyrrolidin-2-one] had an IC50 of 0.1 to 2.2 µM. `COc1cccc(NC2CCN(c3ccc(-c4cn[nH]c4)c(OC(F)F)c3)C2=O)c1` (single isomer, unassigned) [Example 114, 1-(3-(difluoromethoxy)-4-(1H-pyrazol-4-yl)phenyl)-3-((3-methoxyphenyl)amino)pyrrolidin-2-one] showed an IC50 of 0.01 to 0.1 µM.

`COc1ccc(F)c(NC2CCN(c3ccc(-c4cn[nH]c4)cc3)C2=O)c1` (single isomer, unassigned) [Example 239, 1-(4-(1H-pyrazol-4-yl)phenyl)-3-((2-fluoro-5-methoxyphenyl)amino)pyrrolidin-2-one]: the IC50 lay in the range of 0.01 to 0.1 µM. On to `COc1cc(NC2CCN(c3ccc(-c4cn[nH]c4)c(C)n3)C2=O)ccc1F` (single isomer, unassigned) [Example 194, 3-((4-fluoro-3-methoxyphenyl)amino)-1-(6-methyl-5-(1H-pyrazol-4-yl)pyridin-2-yl)pyrrolidin-2-one], for which the concentration for half-maximal inhibition (IC50) lay in the range of 0.01 to 0.1 µM. The same measure for `COc1nc(N2CCC(Nc3cccc(OCC4CC4)c3)C2=O)ccc1-c1cn[nH]c1` (racemic) [Example 205, 3-((3-(cyclopropylmethoxy)phenyl)amino)-1-(6-methoxy-5-(1H-pyrazol-4-yl)pyridin-2-yl)pyrrolidin-2-one]: under 0.01 µM; for `COc1cc(F)cc(NC2CCN(c3ccc(-c4cn[nH]c4)cc3F)C2=O)c1` (single isomer, unassigned) [Example 338, 1-(2-fluoro-4-(1H-pyrazol-4-yl)phenyl)-3-((3-fluoro-5-methoxyphenyl)amino) pyrrolidin-2-one]: 0.01 to 0.1 µM. The same measure for `COc1cccc(NC2CCN(c3ccc(-c4cn[nH]c4)cc3Cl)C2=O)c1` (single isomer, unassigned) [Example 166, 1-(2-chloro-4-(1H-pyrazo1-4-yl)phenyl)-3 ((3-methoxyphenyl)amino)pyrrolidin-2-one]: 0.1 to 2.2 µM. Take `COc1ccc(C(=O)OC2CCN(c3ccc(-c4cn[nH]c4)cc3)C2=O)c(N)c1` (racemic) [Example 327, 1-(4-(1H-pyrazol-4-yl)phenyl)-2-oxopyrrolidin-3-yl2-amino-4-methoxybenzoate]: the IC50 is 0.1 to 2.2 µM.

In turn, `COc1nc(N2CCC(Nc3ccc4c(c3)CS(=O)(=O)C4)C2=O)ccc1-c1cn[nH]c1` (racemic) [Example 263, 3-((2,2-dioxido-l,3-dihydrobenzo[c]thiophen-5-yl)amino)-1-(6-methoxy-5-(1H-pyrazol-4-yl)pyridin-2-yl)pyrrolidin-2-one] had an IC50 of 0.1 to 2.2 µM. The same measure for `CCc1cc(N2CCC(Nc3cccc(OCC4CC4)c3)C2=O)ccc1-c1cn[nH]c1` (single isomer, unassigned) [Example 247, 3-((3-(cyclopropylmethoxy)phenyl)amino)-1-(3-ethyl-4-(1H-pyrazol-4-yl)phenyl)pyrrolidin-2-one]: 0.01 to 0.1 µM; for `COc1ccc(NC2CCN(c3ccc(-c4cn[nH]c4)c(OC)c3)C2=O)c(F)c1` (single isomer, unassigned) [Example 152, 3-((2-fluoro-4-methoxyphenyl)amino)-1-(3-methoxy-4-(1H-pyrazol-4-yl)phenyl) pyrrolidin-2-one]: 0.1 to 2.2 µM. The figure for `CCc1cc(N2CCC(Nc3cccc(OCC4CC4)c3)C2=O)ccc1-c1cn[nH]c1` (single isomer, unassigned) [Example 248, 3-((3-(cyclopropylmethoxy)phenyl)amino)-1-(3-ethyl-4-(1H-pyrazol-4-yl)phenyl)pyrrolidin-2-one] is 0.1 to 2.2 µM; for `O=C1C(Nc2cccc(OC(F)F)c2)CCN1c1ccc(-c2cn[nH]c2)cn1` (single isomer, unassigned) [Example 321, 1-(5-(1H-pyrazol-4-yl)pyridin-2-yl)-3-((3-(difluoromethoxy)phenyl)amino) pyrrolidin-2-one] it is 0.1 to 2.2 µM. The figure for `COc1c(F)cccc1NC1CCN(c2ccc(-c3cn[nH]c3)cn2)C1=O` (single isomer, unassigned) [Example 89, 1-(5-(1H-pyrazol-4-yl)pyridin-2-yl)-3-((3-fluoro-2-methoxyphenyl)amino) pyrrolidin-2-one] is under 0.01 µM.
